The values that follow come from patent US20260207514A1, “Clofazimine Mini-Tablets for Treatment of Tuberculosis in Pediatrics” (Via Therapeutics, LLC, priority 2022, published 2026).

Converted amounts (≈) assume the structure as drawn. Read-outs that look alike come from different tables or passages of the source.

Data set [1] can be described thus: Particle size distribution of milled powder by laser diffraction. The format is physicochemical. As to conditions: jet-milled powder, RODOS 4 bar. The protocol:
Clofazimine (CFZ) (Midas Pharma GmbH) was micronized by Lonza Group AG using a 10-inch spiral jet mill at 3 kg/hr feed rate and 100 psi grinding pressure. Particle size distribution of the milled powder was determined using a laser diffractor (HELOS, Sympatec GmbH) with RODOS dry powder disperser set at 4 bar dispersion pressure and 20% rotation.

Data set [2] can be described thus: Stress testing of micronized CFZ with excipient blends (compatibility, HPLC assay and related substances). The format is physicochemical. The method, then:
Clofazimine degradation was assessed using the high pressure liquid chromatography (HPLC) method published in the United States Pharmacopeia monograph for the drug (U.S.P., 2021) The mobile phase consisted of a 65:35 mixture of acetonitrile and an aqueous buffer consisting of 4.5 g/L sodium dodecyl sulfate, 1.7 g/L tetrabutylammonium hydrogen sulfate and 21.8 g/L Na2HPO4 adjusted to pH 3.0. Flow rate was 1.0 mL/min and infection volume was 20 μL. A LiChromspher® RP-8 100 column (250×4.6, 5 μm) (Millipore Sigma) was used. Measurements were performed using an Agilent 1100 HPLC with diode array detector set at 280 nm. […] Hydrophobic PTFE 0.22 μm filters were used for sample filtration prior to analysis.
Stress testing of micronized CFZ in combination with commercially available tableting excipient blends was performed to establish potential mechanisms of drug degradation and streamline excipient selection for mini-tablet preparation. Two different blends were assessed: Prosolv® EasyTab SP (JRS Pharma) and Ludipress® (BASF).
Additionally, Eudragit® E PO was assessed, as a potential candidate for functional coating of the mini-tablets to prevent CFZ release in the saliva and subsequent staining of the mouth. Binary mixtures of micronized CFZ and excipient blends and micronized CFZ and Eudragit E PO were prepared at 1:1 weight ratios. Blends of CFZ with Prosolv EasyTab SP, Ludipress, or Eudragit E PO were left open or in closed HPDE vials and stored for 18 days at 70° C./20% relative humidity (RH) or 70° C./75% RH, which was the thermal equivalent of 6 months of storage. As a control, micronized CFZ alone and each excipient blend alone were stored open at each condition.
HPLC analysis was performed on day 0 for CFZ alone and CFZ with each excipient, as well as on day 18 for the same samples at each temperature and humidity condition. Assay values (% recovery) for all samples was determined by comparing peak area to a reference standard and correcting for sample water content measured by Karl Fischer titration method, and related substances were reported by relative retention time (RRT) to the reference CFZ peak.

For data set [3] the following is noted: 1 mg/kg per day, average 105.6 days, average age 5.8 years; cited from earlier work.
A short description of the next data set: physchem. The class given is physicochemical. As to conditions: thermodynamic from solid, read-out: CFZ saturation solubility.

In data set [1], `CC(C)/N=c1\cc2n(-c3ccc(Cl)cc3)c3ccccc3nc-2cc1Nc1ccc(Cl)cc1` [CFZ, clofazimine] displayed an X10 diameter of 0.66 μm, an X50 diameter of 1.47 μm and an X90 diameter of 3.50 μm. Further, in data set [2] (70 C./20% RH, Open, 18 days), the “Impurity (% Area) RRT 0.82” value was 0.113 % Area and the “Impurity (% Area) RRT 0.88” value worked out at 0.117 % Area. Also, in data set [2] (70 C./75% RH, Open, 18 days), the “Impurity (% Area) RRT 0.82” value came to 0.096 % Area, the “Impurity (% Area) RRT 0.88” value is on record as 0.126 % Area and the “Impurity (% Area) RRT 0.94” value is recorded as below 0.05 % Area. In data set [2] (Initial (day 0)), the “Impurity (% Area) RRT 0.82” value amounted to 0.096 % Area and the “Impurity (% Area) RRT 0.88” value is recorded as 0.109 % Area. The adverse effects result in data set [3] is “limited to skin discoloration and gastrointestinal symptoms”. In addition, the solubility in the data set “physchem” (fassgf or other biorelevant, in FaSSGF) was determined as 0.092 ± 0.004 µg/mL (≈ 0.194 µM). Moreover, in “physchem” (fassgf or other biorelevant, in FeSSGF), the solubility was found to be 20.1 ± 1.86 µg/mL (≈ 42.5 µM). For the same compound, in the data set “physchem” (fessif, in FeSSIF), the solubility worked out at 14.9 ± 1.5 µg/mL (≈ 31.5 µM).
